# In patent US20220273666A1, “NANOPARTICLE FORMULATION OF BCL-2 INHIBITOR” (Recurium IP Holdings, LLC, priority 2019, published 2022):
# Tests used:
# [1] = multiple oral administration under fed conditions; cited from earlier work
# [2] = Phase I/II clinical trials, chronic lymphocytic leukemia; cited from earlier work
# NCI-H146 cells = assay: NCI-H146 cell proliferation assay (CellTiter-Glo); format: cell-based; conditions: Homo sapiens, 72 h treatment, read-out: H146 CTG IC50
# Procedure: Cell proliferation was measured using the CellTiter-Glo® Luminescent Cell Viability Assay. The assay involved the addition of a single reagent (CellTiter-Glo® Reagent) directly to cells cultured in serum-supplemented medium. RS4;11 (ATCC, CRL-1873) cells were cultured according to ATCC recommendations and were seeded at 50,000 cells per well. NCI-H1963 cells (ATCC CRL-5982) were cultured according to ATCC recommendations and seeded at 12,000 cells per well. NCI-H146 (ATCC, HTB-173) cells were cultured according to ATCC recommendations and were seeded at 20,000 cells per well.
# Each compound evaluated was prepared as a DMSO stock solution (10 mM). Compounds were tested in duplicate on each plate, with a 10-point serial dilution curve (1:3 dilution). Compound treatment (1.0 μL for RS4;11 and NCI-H1963, 10 μL for NCI-H146) was added from the compound dilution plate to the cell plate. The highest compound concentration was 10 μM (final), with a 0.1% final DMSO concentration. Plates were then incubated at 37° C., 5% CO2. After 48 h of compound treatment for RS4;11 or 72 h for NCI-H-1963 and NCI-H-146, cell plates were equilibrated at rt for approximately 30 mins. An equi-volume amount of CellTiter-G)® Reagent (40 (L for […] and NC-H1963, 100 μL for NCI-H-146)) was added to each well. Plates were mixed for 2 mins on an orbital shaker to induce cell lysis and then incubated at RT for 10 mins to stabilize the luminescent signal. Luminescence was recorded using a Envision or SpectraMax M5e plate reader according to CellTiter-Glo protocol. IC50 of each compound was calculated using GraphPad Prism by nonlinear regression analysis.
# Bcl-XL = biological target: T1, Bcl-XL (Homo sapiens, UniProt Q07817); assay: Bcl-2/Bcl-XL HTRF assay; format: binding; conditions: 3 nM Bcl-XL, 40 nM FAM-Bad peptide
# T1 construct: host or cells: T7 phage in E. coli host derived from BL21
# T1 sequence (Q07817 whole entry): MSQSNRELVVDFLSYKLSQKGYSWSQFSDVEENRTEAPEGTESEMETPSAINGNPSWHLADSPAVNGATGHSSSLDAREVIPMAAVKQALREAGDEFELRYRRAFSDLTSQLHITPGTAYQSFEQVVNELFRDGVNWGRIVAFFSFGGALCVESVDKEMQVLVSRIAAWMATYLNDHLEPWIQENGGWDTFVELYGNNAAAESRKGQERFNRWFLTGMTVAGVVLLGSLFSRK
# Bcl-2 = Bcl-2 (Homo sapiens, UniProt P10415); assay: Bcl-2/Bcl-XL HTRF assay
# Chain of Bcl-2 (P10415 whole entry): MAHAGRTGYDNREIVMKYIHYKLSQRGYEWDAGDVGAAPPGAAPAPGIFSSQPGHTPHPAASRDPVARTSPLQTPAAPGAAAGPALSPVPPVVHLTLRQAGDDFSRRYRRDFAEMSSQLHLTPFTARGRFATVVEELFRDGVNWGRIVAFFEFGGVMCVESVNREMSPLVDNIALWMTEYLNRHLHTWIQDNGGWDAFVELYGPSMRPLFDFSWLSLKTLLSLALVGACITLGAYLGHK
Compound,IC50 (NCI-H146 cells) [µM],IC50 (Bcl-XL) [µM],IC50 (Bcl-2) [µM],other results
"CC1(C)CCC(CN2CCN(c3ccc(C(=O)NS(=O)(=O)c4ccc(NCC5CCOCC5)c([N+](=O)[O-])c4)c(Oc4cnc5[nH]ccc5c4)c3)CC2)=C(c2ccc(Cl)cc2)C1 [ABT-199, venetoclax]",,,,time to maximum plasma concentration [1]: 5 to 8 h
"CC1(C)CCC(c2ccc(Cl)cc2)=C(CN2CCN(c3ccc(C(=O)NS(=O)(=O)c4ccc(N[C@H](CCN5CCOCC5)CSc5ccccc5)c(S(=O)(=O)C(F)(F)F)c4)cc3)CC2)C1 [ABT-263, Navitoclax, reference compound]",≤ 0.1,,,side effect limiting dosage [2]: occurrence of thrombocytopenia
"CN1CCN(CC[C@H](CSc2ccccc2)Nc2ccc(S(=O)(=O)NC(=O)c3ccc(N4CCN(CC5=C(C67CC(C(F)F)(C6)C7)CC(C)(C)CC5)CC4)cc3)cc2S(=O)(=O)C(F)(F)F)CC1 [Example 98, (R)-4-(4-((2-(3-(difluoromethyl)bicyclo[1.1.1]pentan-1-yl)-4,4-dimethylcyclohex-1-en-1-yl)methyl)piperazin-1-yl)-N-((4-((4-(4-methylpiperazin-1-yl)-1-(phenylthio)butan-2-yl)amino)-3-((trifluoromethyl)sulfonyl)phenyl)sulfonyl)benzamide]",0.1 to 1,< 0.01,< 0.01,
"COC1CCN(CC[C@H](CSc2ccccc2)Nc2ccc(S(=O)(=O)NC(=O)c3ccc(N4CCN(CC5=C(C67CC(C(F)F)(C6)C7)CC(C)(C)CC5)CC4)cc3)cc2S(=O)(=O)C(F)(F)F)CC1 [Example 99, (R)-4-(4-((2-(3-(difluoromethyl)bicyclo[1.1.1]pentan-1-yl)-4,4-dimethylcyclohex-1-en-1-yl)methyl)piperazin-1-yl)-N-((4-((4-(4-methoxypiperidin-1-yl)-1-(phenylthio)butan-2-yl)amino)-3-((trifluoromethyl)sulfonyl)phenyl)sulfonyl)benzamide]",≤ 0.1,< 0.01,< 0.01,
"CC1(C)CCC(CN2CCN(c3ccc(C(=O)NS(=O)(=O)c4ccc(N[C@H](CCN5CCCC5)CSc5ccccc5)c(S(=O)(=O)C(F)(F)F)c4)cc3)CC2)=C(C23CC(C(F)F)(C2)C3)C1 [Example 100, (R)-4-(4-((2-(3-(difluoromethyl)bicyclo[1.1.1]pentan-1-yl)-4,4-dimethylcyclohex-1-en-1-yl)methyl)piperazin-1-yl)-N-((4-((1-(phenylthio)-4-(pyrrolidin-1-yl)butan-2-yl)amino)-3-((trifluoromethyl)sulfonyl)phenyl)sulfonyl)benzamide]",≤ 0.1,< 0.01,< 0.01,
CC1(C)CCC(CN2CCN(c3ccc(C(=O)NS(=O)(=O)c4ccc(N[C@H](CCN5CCO[C@H](CO)C5)CSc5ccccc5)c(S(=O)(=O)C(F)(F)F)c4)cc3)CC2)=C(C23CC(C(F)F)(C2)C3)C1 [Example 102],≤ 0.1,,,
CC1(C)CCC(CN2CCN(c3ccc(C(=O)NS(=O)(=O)c4ccc(N[C@H](CCN5CCO[C@@H](CO)C5)CSc5ccccc5)c(S(=O)(=O)C(F)(F)F)c4)cc3)CC2)=C(C23CC(C(F)F)(C2)C3)C1 [Example 103],0.1 to 1,,,
"COC(=O)C1(C)CCN(CC[C@H](CSc2ccccc2)Nc2ccc(S(=O)(=O)NC(=O)c3ccc(N4CCN(CC5=C(C67CC(C(F)F)(C6)C7)CC(C)(C)CC5)CC4)cc3)cc2S(=O)(=O)C(F)(F)F)CC1 [Example 104, (R)-Methyl 1-(3-((4-(N-(4-(4-((2-(3-(difluoromethyl)bicyclo[1.1.1]pentan-1-yl)-4,4-dimethylcyclohex-1-en-1-yl)methyl)piperazin-1-yl)benzoyl)sulfamoyl)-2-((trifluoromethyl)sulfonyl)phenyl)amino)-4-(phenylthio)butyl)-4-methylpiperidine-4-carboxylate]",≤ 0.1,< 0.01,< 0.01,

# Continued, in another order:
IC50 (NCI-H146 cells) [µM],Compound,IC50 (Bcl-XL) [µM],IC50 (Bcl-2) [µM],other results
≤ 0.1,COC1(C)CCN(CC[C@H](CSc2ccccc2)Nc2ccc(S(=O)(=O)NC(=O)c3ccc(N4CCN(CC5=C(C67CC(C(F)F)(C6)C7)CC(C)(C)CC5)CC4)cc3)cc2S(=O)(=O)C(F)(F)F)CC1 [Example 101],,,
≤ 0.1,"CCOC1CCN(CC[C@H](CSc2ccccc2)Nc2ccc(S(=O)(=O)NC(=O)c3ccc(N4CCN(CC5=C(C67CC(C(F)F)(C6)C7)CC(C)(C)CC5)CC4)cc3)cc2S(=O)(=O)C(F)(F)F)CC1 [Example 105, (R)-4-(4-((2-(3-(difluoromethyl)bicyclo[1.1.1]pentan-1-yl)-4,4-dimethylcyclohex-1-en-1-yl)methyl)piperazin-1-yl)-N-((4-((4-(4-ethoxypiperidin-1-yl)-1-(phenylthio)butan-2-yl)amino)-((trifluoromethyl)sulfonyl)phenyl)sulfonyl)benzamide]",,,
0.1 to 1,CC(C)OC1CCN(CC[C@H](CSc2ccccc2)Nc2ccc(S(=O)(=O)NC(=O)c3ccc(N4CCN(CC5=C(C67CC(C(F)F)(C6)C7)CC(C)(C)CC5)CC4)cc3)cc2S(=O)(=O)C(F)(F)F)CC1 [Example 106],,,
≤ 0.1,"CC(C)N1CCN(CC[C@H](CSc2ccccc2)Nc2ccc(S(=O)(=O)NC(=O)c3ccc(N4CCN(CC5=C(C67CC(C(F)F)(C6)C7)CC(C)(C)CC5)CC4)cc3)cc2S(=O)(=O)C(F)(F)F)CC1 [Example 107, (R)-4-(4-((2-(3-(difluoromethyl)bicyclo[1.1.1]pentan-1-yl)-4,4-dimethylcyclohex-1-en-1-yl)methyl)piperazin-1-yl)-N-((4-((4-(4-isopropylpiperazin-1-yl)-1-(phenylthio)butan-2-yl)amino)-3-((trifluoromethyl)sulfonyl)phenyl)sulfonyl)benzamide]",,,
≤ 0.1,"CCC12CC(C3=C(CN4CCN(c5ccc(C(=O)NS(=O)(=O)c6ccc(N[C@H](CCN7CCC(OC)CC7)CSc7ccccc7)c(S(=O)(=O)C(F)(F)F)c6)cc5)CC4)CCC(C)(C)C3)(C1)C2 [Example 108, (R)-4-(4-((2-(3-ethylbicyclo[1.1.1]pentan-1-yl)-4,4-dimethylcyclohex-1-en-1-yl)methyl)piperazin-1-yl)-N-((4-((4-(4-methoxypiperidin-1-yl)-1-(phenylthio)butan-2-yl)amino)-3-((triluoromethyl)sulfonyl)phenyl)sulfonyl)benzamide]",,,
